Test results published in US8268847B2, “Therapeutic compositions comprising a specific endothelin receptor antagonist and a PDE5 inhibitor” (Actelion Pharmaceuticals, Ltd., priority 2006, dated 2012).
Several values for one entry are separate records, joined by “and”; a condition that tells them apart may be missing. Equal entries are not always repeated.

How the values were obtained:
[1] = tested on: Dahl salt-sensitive (Dahl-S) rats; assay: Dahl salt-sensitive rat model: blood pressure by telemetry, area between curves (ABC); type: in vivo; conditions: oral, 0 to 72 hours
Procedure: Dahl Salt-Sensitive Rat Model
Dahl salt-sensitive (Dahl-S) were purchased from Harlan (Netherlands). The rats were housed by group during the acclimatization period and single-housed after implantation of the telemetry device. All animals were maintained under identical conditions and had free access to normal pelleted rat chow and water. Dahl salt-sensitive rats develop hypertension only upon exposure to salt intake. They were administered a high-salt (8%) chow diet (Purina series 5500). Five weeks after starting salt administration, a telemetry system was implanted under anaesthesia by inhalation of 2.5% isoflurane (in 70% O2+30% N2O). […]
The compounds were administered at least 2 weeks after telemetry system implantation. […] The acute effects of the compound of formula (I), the compound having PDE5-inhibitory properties and their combination on blood pressure were measured by collecting data at 5-minute intervals up to 72 h after oral administration. Hourly means of blood pressure were calculated for each rat. […] The two curves (blood pressure of the control period and blood pressure of the treatment period) were plotted together and the area between curves (ABC) from 0 to 72 hours was calculated. […]

[2] = tested on: spontaneously hypertensive rats (SHR); assay: Spontaneously hypertensive rat model: blood pressure by telemetry, area between curves (ABC); type: in vivo; conditions: oral, 0 to 72 hours
Procedure: The compounds were administered at least 2 weeks after telemetry system implantation. The compound of formula (I) and the compound having PDE5-inhibitory properties were prepared in 5% arabic gum and administered by oral gavage. The acute effects of the compound of formula (I), the compound having PDE5-inhibitory properties and their combination on blood pressure were measured by collecting data at 5-minute intervals up to 72 h after oral administration. Hourly means of blood pressure were calculated for each rat. Each rat served as its own control, by using the blood pressure data of the last 24 hours before drug administration. The two curves (blood pressure of the control period and blood pressure of the treatment period) were plotted together and the area between curves (ABC) from 0 to 72 hours was calculated. The higher the ABC, the stronger the effect of the item tested for lowering blood pressure.
Spontaneously Hypertensive Rat Model
The SHR rats were purchased from Harlan (Netherlands).

For `CCCNS(=O)(=O)Nc1ncnc(OCCOc2ncc(Br)cn2)c1-c1ccc(Br)cc1` [compound of formula (I)], the “area between curves (ABC) of blood pressure, control period vs treatment period” value (“area between curves (ABC) … vs treatment period” for short) ([1]; 0.3 mg/kg, higher ABC = stronger blood pressure lowering) was 256 and the “area between curves (ABC) … vs treatment period” value ([2]; 0.3 mg/kg) was 44 and 38.

`CCCc1nn(C)c2c(=O)[nH]c(-c3cc(S(=O)(=O)N4CCN(C)CC4)ccc3OCC)nc12` [sildenafil] was tested, and the “area between curves (ABC) … vs treatment period” value ([2]; 30 mg/kg) was 229.

`CN1CC(=O)N2[C@H](c3ccc4c(c3)OCO4)c3[nH]c4ccccc4c3C[C@@H]2C1=O` [tadalafil] was tested, and the “area between curves (ABC) … vs treatment period” value ([1]; 10 mg/kg) was 310 and the “area between curves (ABC) … vs treatment period” value ([2]; 10 mg/kg) was 286.
